# Patent US9347888B2, “Detection of bacteria exhibiting a resistance to carbapenems” (BIOMERIEUX, priority 2011, dated 2016)
# Legend:
# [1] = system: IR (impermeability resistance) strains; assay: Impact of cloxacillin and/or PAbetaN with faropenem, agar dilution; format: cell-based, Gram-negative bacteria
# Protocol: (§1) Seventy-seven strains of Gram-negative bacteria, of which 71 are enterobacteria and 6 non-enterobacteria (non-fermenting bacteria), whose resistance characteristics are set out in Table VIII, were tested on media containing different concentrations of faropenem and cloxacillin, with or without PAbetaN, in order to establish the sensitivity and the specificity of each formulation. The tested media are described in Table IX.
# (§2) The chromogenic media are divided into 120×120 square dishes.
# (§3) The seeding is performed from 24-h pre-cultures at 37° C. on trypcase soy agar. For each strain, a 0.5 McF suspension in physiological water is produced. Each suspension is spot-seeded (1 to 2 μL) on each medium with the aid of a multi-point inoculator according to the Agar Dilution (AD) method. Readings are performed after 24 hours of incubation at 37° C.
# (§4) An absence of bacterial growth or a number of colonies which is less than or equal to 3 are considered as corresponding to growth inhibition. The presence of 4 colonies or more is considered to be positive growth.
# [2] = system: Total carbapenemases; assay: as above; format: cell-based, Gram-negative bacteria; conditions: cloxacillin alone (no PAbetaN), at the 3 concentrations of faropenem tested
# Protocol: as §1, §2, §3, §4
# [3] = Test of stability of the different carbapenems in agar medium; format: physicochemical; conditions: agar media kept at 2 to 8°C up to 9 weeks (63 days); strains seeded D0, D14, D42, D63
# Protocol: Agar media modelled on those indicated supra were prepared and kept at a temperature of between 2 and 8° C. for up to 9 weeks (63 days).
# ESBL and AmpC strains, and carbapenemases from class B, IR or KPC, were seeded on these different media on D0, D14, D42 and D63.
# [4] = system: carbapenemase-producing strains; assay: Faropenem on pure strains, agar dilution: detection sensitivity; format: cell-based, Gram-negative bacteria; conditions: medium containing 16 mg/L faropenem; for Detection sensitivity (strains detected/strains): 24 h 37°C
# Protocol: (§5) Seventy-nine strains of Gram-negative bacteria, of which 69 are enterobacteria and 10 non-enterobacteria (non-fermenting bacteria), whose resistance characteristics are set out in Table I, were tested on media containing different concentrations of faropenem in order to establish the sensitivity/specificity of each formulation. The dishes were read after 24 hours of incubation at 37° C.
# (§6) The medium used is a conventional agar medium comprising at least one chromogenic substrate, and supplemented with faropenem at the following concentrations:
# (§7) The media are divided into 120×120 square dishes.
# (§8) The seeding is performed from 24-h pre-cultures at 37° C. on trypcase soy agar.
# (§9) For each strain, a 0.5 McF suspension in physiological water is produced and then diluted 1/100.
# (§10) Each suspension is spot-seeded (1 to 2 μL) on each medium with the aid of a multi-point inoculator according to the Agar Dilution (AD) method.
# (§11) Readings are performed after 24 hours of incubation at 37° C.
# (§12) For interpretation, the following cases are considered as corresponding to growth inhibition: • absence of bacterial growth • number of colonies≦3
# (§13) The presence of 4 colonies or more is considered to be positive growth.
# [5] = system: strains with other types of resistance (ESBL or cephalosporinase, impermeability resistance); assay: Faropenem on pure strains, agar dilution: detection specificity; format: cell-based, Gram-negative bacteria; conditions: medium containing 16 mg/L faropenem; for Detection specificity (strains inhibited/strains): 24 h 37°C
# Protocol: as §5, §6, §7, §8, §9, §10, §11, §12, §13
# [6] = system: KPC strains; assay: Faropenem on pure strains, agar dilution: MIC and growth of KPC strains; format: cell-based, Gram-negative bacteria
# Protocol: as §5, §6, §7, §8, §9, §10, §11, §12, §13
compound,measurement,setting,value
Cc1onc(-c2ccccc2Cl)c1C(=O)N[C@@H]1C(=O)N2[C@@H]1SC(C)(C)[C@@H]2C(=O)O [cloxacillin],additional IR strains inhibited,[1]; addition of 50 mg/L cloxacillin at 16 mg/L of faropenem,6
same,additional IR strains inhibited,[1]; addition of 200 mg/L cloxacillin at 16 mg/L of faropenem,9
same,impact on the growth of the carbapenemase-producing strains,[2],little or no impact
C[C@@H](O)[C@H]1C(=O)N2C(C(=O)O)=C(S[C@@H]3CN[C@H](CNS(N)(=O)=O)C3)[C@H](C)[C@H]12 [doripenem],stability in agar medium,[3],"close to that of ertapenem, and greater than that of imipenem and of meropenem"
C[C@@H](O)[C@H]1C(=O)N2C(C(=O)O)=C([C@H]3CCCO3)S[C@H]12 [faropenem],Detection sensitivity,[4]; inoculum 0.5 McF,91.4%
same,Detection sensitivity,[4]; inoculum 0.5 McF diluted 1/100,91.4%
same,Detection sensitivity (strains detected/strains),[4]; inoculum 0.5 McF diluted 1/100,53/58
same,Detection sensitivity (strains detected/strains),[4]; inoculum 0.5 McF,53/58
same,Detection specificity,[5]; inoculum 0.5 McF,66.7%
same,Detection specificity,[5]; inoculum 0.5 McF diluted 1/100,71.4%
same,Detection specificity (strains inhibited/strains),[5]; inoculum 0.5 McF diluted 1/100,15/21
same,Detection specificity (strains inhibited/strains),[5]; inoculum 0.5 McF,14/21
same,KPC strains developing on the medium,[6]; faropenem at 16 mg/L,All of the KPC strains develop
same,MIC of the totality of KPC strains,"[6]; whatever the inoculum tested, unit not printed (media in mg/L)",> 32
same,stability in agar medium,[3],"close to that of ertapenem, and greater than that of imipenem and of meropenem"
same,No. IR developing (/19),"[1]; PAbetaN 0, cloxacillin 0, faropenem 8 mg/L",16
same,No. IR developing (/19),"[1]; PAbetaN 0, cloxacillin 0, faropenem 16 mg/L",15
same,No. IR developing (/19),"[1]; PAbetaN 0, cloxacillin 0, faropenem 32 mg/L",10
same,No. IR developing (/19),"[1]; PAbetaN 0, cloxacillin 50, faropenem 8 mg/L",14
same,No. IR developing (/19),"[1]; PAbetaN 0, cloxacillin 50, faropenem 16 mg/L",9
same,No. IR developing (/19),"[1]; PAbetaN 0, cloxacillin 50, faropenem 32 mg/L",4
same,No. IR developing (/19),"[1]; PAbetaN 0, cloxacillin 100, faropenem 8 mg/L",11
same,No. IR developing (/19),"[1]; PAbetaN 0, cloxacillin 100, faropenem 16 mg/L",6
same,No. IR developing (/19),"[1]; PAbetaN 0, cloxacillin 100, faropenem 32 mg/L",2
same,No. IR developing (/19),"[1]; PAbetaN 0, cloxacillin 200, faropenem 8 mg/L",11
same,No. IR developing (/19),"[1]; PAbetaN 0, cloxacillin 200, faropenem 16 mg/L",6
same,No. IR developing (/19),"[1]; PAbetaN 0, cloxacillin 200, faropenem 32 mg/L",1
same,No. IR developing (/19),"[1]; PAbetaN 25, cloxacillin 50, faropenem 8 mg/L",11
same,No. IR developing (/19),"[1]; PAbetaN 25, cloxacillin 50, faropenem 16 mg/L",10
same,No. IR developing (/19),"[1]; PAbetaN 25, cloxacillin 50, faropenem 32 mg/L",5
same,No. IR developing (/19),"[1]; PAbetaN 25, cloxacillin 100, faropenem 8 mg/L",10
same,No. IR developing (/19),"[1]; PAbetaN 25, cloxacillin 100, faropenem 16 mg/L",5
same,No. IR developing (/19),"[1]; PAbetaN 25, cloxacillin 100, faropenem 32 mg/L",1
same,No. IR developing (/19),"[1]; PAbetaN 25, cloxacillin 200, faropenem 8 mg/L",7
same,No. IR developing (/19),"[1]; PAbetaN 25, cloxacillin 200, faropenem 16 mg/L",1
same,No. IR developing (/19),"[1]; PAbetaN 25, cloxacillin 200, faropenem 32 mg/L",1
same,impact on IR strains,"[1]; faropenem alone, up to a concentration of 16 mg/L",little impact
